The results in this text go back to ChEMBL document CHEMBL3046627, “Synthesis and in vitro study of antibacterial, antifungal activities of some novel bisquinolines” (2013).

Common to all, as to format: functional
Experiment [1] deals with Vibrio cholerae. Nature of the experiment: Antibacterial activity against Vibrio cholerae 759 assessed as growth inhibition after 24 hr by agar dilution method. (In general: In agar dilution the substance is mixed into plates at graded concentrations.)
For experiment [2], the system named is Aspergillus niger. The experiment is described as follows: Antifungal activity against Aspergillus niger assessed as growth inhibition after 96 hr by agar dilution method.
Experiment [3] deals with Bacillus pumilus. The experiment is described as follows: Antibacterial activity against Bacillus pumilus 11778 assessed as growth inhibition after 24 hr by agar dilution method.
In experiment [4] the test system is Candida tropicalis. Nature of the experiment: Antifungal activity against Candida tropicalis assessed as growth inhibition after 96 hr by agar dilution method.
The subject of experiment [5] is Staphylococcus aureus. Nature of the experiment: Antibacterial activity against Staphylococcus aureus 29737 assessed as growth inhibition after 24 hr by agar dilution method.
In experiment [6] the test system is Klebsiella pneumoniae. The experiment is described as follows: Antibacterial activity against Klebsiella pneumoniae J/I/4 assessed as growth inhibition after 24 hr by agar dilution method.
Experiment [7] has as its system Micrococcus luteus. Nature of the experiment: Antibacterial activity against Micrococcus luteus ATCC 9341 assessed as growth inhibition after 24 hr by agar dilution method.
Experiment [8] deals with Escherichia coli. The experiment is described as follows: Antibacterial activity against Escherichia coli 319 assessed as growth inhibition after 24 hr by agar dilution method.
The subject of experiment [9] is Pseudomonas aeruginosa. Nature of the experiment: Antibacterial activity against Pseudomonas aeruginosa 71 assessed as growth inhibition after 24 hr by agar dilution method.
Experiment [10] has as its system Candida albicans. Nature of the experiment: Antifungal activity against Candida albicans assessed as growth inhibition after 96 hr by agar dilution method.
Experiment [11] has as its system Cryptococcus neoformans. Nature of the experiment: Antifungal activity against Cryptococcus neoformans assessed as growth inhibition after 96 hr by agar dilution method.
The subject of experiment [12] is Shigella dysenteriae. The experiment is described as follows: Antibacterial activity against Shigella dysenteriae 15 assessed as growth inhibition after 24 hr by agar dilution method.
The subject of experiment [13] is Cryptococcus neoformans. The experiment is described as follows: Antifungal activity against Cryptococcus neoformans assessed as growth inhibition at MIC after 96 hr by agar dilution method.
The test system of experiment [14] is Candida albicans. The experiment is described as follows: Antifungal activity against Candida albicans assessed as growth inhibition at MIC after 96 hr by agar dilution method.
Experiment [15] deals with Klebsiella pneumoniae. Nature of the experiment: Antibacterial activity against Klebsiella pneumoniae J/I/4 assessed as growth inhibition at MIC after 24 hr by agar dilution method.
Experiment [16] deals with Micrococcus luteus. The experiment is described as follows: Antibacterial activity against Micrococcus luteus ATCC 9341 assessed as growth inhibition at MIC after 24 hr by agar dilution method.
Experiment [17] relates to Bacillus pumilus. Nature of the experiment: Antibacterial activity against Bacillus pumilus 11778 assessed as growth inhibition at MIC after 24 hr by agar dilution method.
Experiment [18] deals with Vibrio cholerae. The experiment is described as follows: Antibacterial activity against Vibrio cholerae 759 assessed as growth inhibition at MIC after 24 hr by agar dilution method.
Experiment [19] deals with Shigella dysenteriae. Nature of the experiment: Antibacterial activity against Shigella dysenteriae 15 assessed as growth inhibition at MIC after 24 hr by agar dilution method.
For experiment [20], the system named is Escherichia coli. The experiment is described as follows: Antibacterial activity against Escherichia coli 319 assessed as growth inhibition at MIC after 24 hr by agar dilution method.
Experiment [21] relates to Staphylococcus aureus. The experiment is described as follows: Antibacterial activity against Staphylococcus aureus 29737 assessed as growth inhibition at MIC after 24 hr by agar dilution method.
The subject of experiment [22] is Pseudomonas aeruginosa. Nature of the experiment: Antibacterial activity against Pseudomonas aeruginosa 71 assessed as growth inhibition at MIC after 24 hr by agar dilution method.
The test system of experiment [23] is Candida tropicalis. The experiment is described as follows: Antifungal activity against Candida tropicalis assessed as growth inhibition at MIC after 96 hr by agar dilution method.
Experiment [24] has as its system Aspergillus niger. The experiment is described as follows: Antifungal activity against Aspergillus niger assessed as growth inhibition at MIC after 96 hr by agar dilution method.
Where [25] appears, read: Staphylococcus aureus, 29737, 24 h.
Where [26] appears, read: Pseudomonas aeruginosa, 71, 24 h.

In brackets after ≈: the same amount, converted by molar mass. Activity calls are given as the source filed them. No cut-off for these calls is given here.

`Clc1ccc(OCc2ccc(COc3ccc(Cl)c4cccnc34)cc2)c2ncccc12`: the MIC result in the experiment with Vibrio cholerae [1], in the experiment with Aspergillus niger [2], with Bacillus pumilus [3], in the experiment with Candida tropicalis [4], with Staphylococcus aureus [5] and in the experiment on Klebsiella pneumoniae [6] was “inactive” throughout. Moreover, the MIC entry with Micrococcus luteus [7], in the experiment with Escherichia coli [8], in the experiment with Pseudomonas aeruginosa [9], with Candida albicans [10], in the experiment on Cryptococcus neoformans [11] and with Shigella dysenteriae [12] was “inactive” each time.

As to `Cc1ccc2cccc(OCc3ccc(COc4cccc5ccc(C)nc45)cc3)c2n1`, the MIC entry in the experiment on Vibrio cholerae [1], in the experiment on Aspergillus niger [2], in the experiment with Bacillus pumilus [3], in the experiment with Candida tropicalis [4], in the experiment with Staphylococcus aureus [5] and in the experiment on Klebsiella pneumoniae [6] was “inactive” each time. Moreover, the MIC result with Micrococcus luteus [7], with Escherichia coli [8], with Pseudomonas aeruginosa [9], with Candida albicans [10], in the experiment with Cryptococcus neoformans [11] and in the experiment on Shigella dysenteriae [12] was “inactive” each time.

In the case of `Cc1ccc2cccc(OCc3nc4ccccc4nc3COc3cccc4ccc(C)nc34)c2n1`, the MIC result in the experiment on Vibrio cholerae [1], in the experiment on Aspergillus niger [2], with Bacillus pumilus [3], in the experiment with Candida tropicalis [4], in the experiment with Staphylococcus aureus [5] and with Klebsiella pneumoniae [6] was “inactive” throughout. In addition, the MIC result in the experiment on Micrococcus luteus [7], in the experiment with Escherichia coli [8], with Pseudomonas aeruginosa [9], with Candida albicans [10], in the experiment on Cryptococcus neoformans [11] and with Shigella dysenteriae [12] was “inactive” throughout.

Turning to `c1cnc2c(OCc3nc4ccccc4nc3COc3cccc4cccnc34)cccc2c1`, the MIC entry with Vibrio cholerae [1], in the experiment on Aspergillus niger [2], with Bacillus pumilus [3], with Candida tropicalis [4], with Staphylococcus aureus [5] and in the experiment with Klebsiella pneumoniae [6] was “inactive” throughout. Also, the MIC entry in the experiment on Micrococcus luteus [7], in the experiment on Escherichia coli [8], in the experiment with Pseudomonas aeruginosa [9], in the experiment with Candida albicans [10], in the experiment on Cryptococcus neoformans [11] and with Shigella dysenteriae [12] was “inactive” in each case.

Turning to `c1cnc2c(OCc3ccc(COc4cccc5cccnc45)cc3)cccc2c1`, the MIC entry in the experiment with Vibrio cholerae [1], in the experiment on Aspergillus niger [2], in the experiment with Bacillus pumilus [3], with Candida tropicalis [4], in the experiment with Staphylococcus aureus [5] and in the experiment on Klebsiella pneumoniae [6] was “inactive” throughout. The MIC result in the experiment with Micrococcus luteus [7], with Escherichia coli [8], in the experiment with Pseudomonas aeruginosa [9], in the experiment with Candida albicans [10], in the experiment on Cryptococcus neoformans [11] and in the experiment with Shigella dysenteriae [12] was “inactive” in each case. Moreover, the “diameter of the inhibition zone (DIZ)” value in the experiment with Cryptococcus neoformans [13] and in the experiment on Candida albicans [14] was “inactive” each time.

Regarding GENTAMICIN, the minimal inhibitory concentration (MIC) (as a rule, the least concentration at which growth counts as inhibited) was 2 µg/mL in the experiment with Vibrio cholerae [1]; 10 µg/mL with Bacillus pumilus [3]; 1 µg/mL in the experiment with Staphylococcus aureus [5]; 0.25 µg/mL in the experiment on Klebsiella pneumoniae [6]; 24 µg/mL in the experiment on Micrococcus luteus [7]; 4 µg/mL in the experiment with Pseudomonas aeruginosa [9]. Besides, the minimal inhibitory concentration (MIC) in the experiment with Shigella dysenteriae [12] was determined as 2 µg/mL. In addition, the inhibition zone (IZ) amounted to 9 mm in the experiment with Klebsiella pneumoniae [15]; 7 mm in the experiment on Micrococcus luteus [16]; 7 mm with Bacillus pumilus [17]; 11 mm in the experiment with Vibrio cholerae [18]; 12 mm in the experiment on Shigella dysenteriae [19].

Consider `c1ccc2cc(COc3cccc4cccnc34)c(COc3cccc4cccnc34)cc2c1`, for which the minimal inhibitory concentration (MIC) in the experiment on Vibrio cholerae [1] (Vibrio cholerae, 759, 24 h) is above 500 µg/mL; in the experiment on Bacillus pumilus [3] (Bacillus pumilus, 11778, 24 h), 256 µg/mL (≈ 579 µM); with Staphylococcus aureus [5] (setting [25]), above 500 µg/mL; in the experiment with Klebsiella pneumoniae [6] (J/I/4, 24 h), above 500 µg/mL; with Micrococcus luteus [7] (ATCC 9341, 24 h), above 500 µg/mL; in the experiment on Escherichia coli [8] (Escherichia coli, 319, 24 h) it was 32 µg/mL (≈ 72.3 µM). Also, the MIC is above 500 µg/mL in the experiment on Pseudomonas aeruginosa [9] (setting [26]) and above 500 µg/mL with Shigella dysenteriae [12] (Shigella dysenteriae, 15, 24 h). The “diameter of the inhibition zone (DIZ)” value is on record as 6.4 mm in the experiment on Klebsiella pneumoniae [15]; 9.7 mm with Escherichia coli [20]; 6 mm with Micrococcus luteus [16]; 6 mm with Staphylococcus aureus [21]; 9 mm with Bacillus pumilus [17]; 8.2 mm in the experiment with Pseudomonas aeruginosa [22]. The “diameter of the inhibition zone (DIZ)” value with Vibrio cholerae [18] is reported as 7.1 mm; in the experiment with Shigella dysenteriae [19], 6 mm. The MIC result in the experiment on Aspergillus niger [2], in the experiment on Candida tropicalis [4], in the experiment on Candida albicans [10] and in the experiment with Cryptococcus neoformans [11] was “inactive” in each case.

Regarding `CC1(C)S[C@@H]2[C@H](NC(=O)[C@H](N)c3ccc(O)cc3)C(=O)N2[C@H]1C(=O)O` [AMOXICILLIN], the MIC with Vibrio cholerae [1] (Vibrio cholerae, 759, 24 h) came to 256 µg/mL (≈ 701 µM); with Bacillus pumilus [3] (Bacillus pumilus, 11778, 24 h), 0.5 µg/mL (≈ 1.37 µM); in the experiment on Staphylococcus aureus [5] (setting [25]) it was 0.5 µg/mL (≈ 1.37 µM); in the experiment with Klebsiella pneumoniae [6] (J/I/4, 24 h) it was 256 µg/mL (≈ 701 µM); in the experiment on Micrococcus luteus [7] (ATCC 9341, 24 h), 1 µg/mL (≈ 2.74 µM); with Escherichia coli [8] (Escherichia coli, 319, 24 h), 4 µg/mL (≈ 10.9 µM). Moreover, the MIC is 256 µg/mL (≈ 701 µM) with Pseudomonas aeruginosa [9] (setting [26]) and 100 µg/mL (≈ 274 µM) with Shigella dysenteriae [12] (Shigella dysenteriae, 15, 24 h). Besides, the “diameter of the inhibition zone (DIZ)” value turned out to be 8 mm in the experiment on Klebsiella pneumoniae [15]; 8 mm in the experiment on Escherichia coli [20]; 11 mm in the experiment with Micrococcus luteus [16]; 10.5 mm with Staphylococcus aureus [21]; 10 mm in the experiment with Bacillus pumilus [17]; 7.5 mm in the experiment with Pseudomonas aeruginosa [22]. The “diameter of the inhibition zone (DIZ)” value turned out to be 7 mm in the experiment on Vibrio cholerae [18] and 9.5 mm in the experiment with Shigella dysenteriae [19].

Consider `OC(Cn1cncn1)(Cn1cncn1)c1ccc(F)cc1F` [FLUCONAZOLE], for which the “diameter of the inhibition zone (DIZ)” value worked out at 8.5 mm in the experiment on Candida tropicalis [23], 8.5 mm with Cryptococcus neoformans [13], 10.2 mm in the experiment on Candida albicans [14] and 8.6 mm in the experiment on Aspergillus niger [24]. Moreover, the minimum inhibitory concentration (MIC) came to 10 µg/mL (≈ 32.7 µM) with Aspergillus niger [2], 8 µg/mL (≈ 26.1 µM) in the experiment with Candida tropicalis [4], 4 µg/mL (≈ 13.1 µM) in the experiment with Candida albicans [10] and 8 µg/mL (≈ 26.1 µM) with Cryptococcus neoformans [11].

Take `Cc1ccc2cccc(OCc3cccc(COc4cccc5ccc(C)nc45)c3)c2n1`: the “diameter of the inhibition zone (DIZ)” value in the experiment on Candida tropicalis [23], in the experiment on Cryptococcus neoformans [13], in the experiment with Candida albicans [14] and in the experiment with Aspergillus niger [24] was “inactive” throughout. For the same molecule, the MIC entry in the experiment with Vibrio cholerae [1], in the experiment on Aspergillus niger [2], with Bacillus pumilus [3], in the experiment with Candida tropicalis [4], with Staphylococcus aureus [5] and with Klebsiella pneumoniae [6] was “inactive” in each case. The MIC result with Micrococcus luteus [7], in the experiment on Escherichia coli [8], in the experiment on Pseudomonas aeruginosa [9], with Candida albicans [10], with Cryptococcus neoformans [11] and in the experiment with Shigella dysenteriae [12] was “inactive” throughout.

For `Cc1ccc2cccc(OCc3cc4ccccc4cc3COc3cccc4ccc(C)nc34)c2n1`, the minimal inhibitory concentration (MIC) with Vibrio cholerae [1] (Vibrio cholerae, 759, 24 h) is above 500 µg/mL; in the experiment with Bacillus pumilus [3] (Bacillus pumilus, 11778, 24 h) it was 64 µg/mL (≈ 136 µM); with Staphylococcus aureus [5] (setting [25]) it was above 500 µg/mL; in the experiment on Klebsiella pneumoniae [6] (J/I/4, 24 h), above 1000 µg/mL; in the experiment with Micrococcus luteus [7] (ATCC 9341, 24 h), above 1000 µg/mL; with Escherichia coli [8] (Escherichia coli, 319, 24 h) it was above 500 µg/mL. Besides, the MIC in the experiment on Pseudomonas aeruginosa [9] (setting [26]) is above 500 µg/mL; with Shigella dysenteriae [12] (Shigella dysenteriae, 15, 24 h), above 500 µg/mL. Besides, the “diameter of the inhibition zone (DIZ)” value in the experiment on Klebsiella pneumoniae [15], in the experiment with Micrococcus luteus [16], in the experiment with Pseudomonas aeruginosa [22] and with Vibrio cholerae [18] was “inactive” throughout. Moreover, the “diameter of the inhibition zone (DIZ)” value is 7 mm in the experiment on Escherichia coli [20], 6.1 mm with Staphylococcus aureus [21], 6 mm in the experiment on Bacillus pumilus [17] and 8 mm in the experiment with Shigella dysenteriae [19]. Besides, the MIC entry in the experiment on Aspergillus niger [2], in the experiment with Candida tropicalis [4], in the experiment on Candida albicans [10] and with Cryptococcus neoformans [11] was “inactive” throughout.
